From EPA's CvTdb concentration-time database

Columns and labels:
[1] = test system: Mouse; assay: concentration in plasma after dosing; settings: dosed: 2-Hydroxy-4-methoxybenzophenone, 100 mg/kg, oral, Male, B6C3F1
[2] = test system: Mouse; assay: concentration in plasma after dosing; settings: 2.5 min; dosed: 2-Hydroxy-4-methoxybenzophenone; 250 mg/kg; oral; Male; B6C3F1
[3] = test system: Rat; assay: concentration in plasma after dosing; settings: 2.5 min; dosed: 2-Hydroxy-4-methoxybenzophenone; 500 mg/kg; oral; Female; F344
[4] = test system: Mouse; assay: concentration in plasma after dosing; settings: 3 h; dosed: 2-Hydroxy-4-methoxybenzophenone; 250 mg/kg; oral; Female; B6C3F1
[5] = test system: Mouse; assay: concentration in plasma after dosing; settings: 3 h; dosed: 2-Hydroxy-4-methoxybenzophenone; 250 mg/kg; oral; Male; B6C3F1
[6] = test system: Rat; assay: concentration in plasma after dosing; settings: dosed: 2-Hydroxy-4-methoxybenzophenone, 500 mg/kg, oral, Male, F344
[7] = test system: Mouse; assay: concentration in plasma after dosing; settings: 2 h; dosed: 2-Hydroxy-4-methoxybenzophenone; 500 mg/kg; oral; Female; B6C3F1
[8] = test system: Rat; assay: concentration in plasma after dosing; settings: dosed: 2-Hydroxy-4-methoxybenzophenone, 500 mg/kg, oral, Female, F344
[9] = test system: Rat; assay: concentration in plasma after dosing; settings: 0.5 h; dosed: Nitrite; 40 mg/kg; oral; Male; F344
[10] = test system: Rat; assay: concentration in plasma after dosing; settings: 2 min; dosed: Nitrite; 40 mg/kg; oral; Female; F344
[11] = test system: Rat; assay: concentration in kidney after dosing; settings: 6 h; dosed: Perfluorooctanoic acid; 12 mg/kg; oral; Male; Harlan Sprague Dawley
[12] = test system: Rat; assay: concentration in brain after dosing; settings: 3 h; dosed: Perfluorooctanoic acid; 12 mg/kg; oral; Male; Harlan Sprague Dawley
[13] = test system: Rat; assay: concentration in liver after dosing; settings: 48 h; dosed: Perfluorooctanoic acid; 80 mg/kg; oral; Female; Harlan Sprague Dawley
[14] = test system: Rat; assay: concentration in liver after dosing; settings: 3 h; dosed: Fluorotelomer alcohol 8+2; 80 mg/kg; oral; Female; Harlan Sprague Dawley
[15] = test system: Rat; assay: concentration in liver after dosing; settings: 192 h; dosed: Perfluorooctanoic acid; 12 mg/kg; oral; Male; Harlan Sprague Dawley
[16] = test system: Rat; assay: concentration in plasma after dosing; settings: dosed: 678-39-7, 40 mg/kg, iv, Male, F344
[17] = test system: Rat; assay: concentration in plasma after dosing; settings: dosed: 678-39-7, 12 mg/kg, iv, Male, F344
[18] = test system: Rat; assay: concentration in kidney after dosing; settings: 24 h; dosed: Perfluorooctanoic acid; 80 mg/kg; oral; Female; Harlan Sprague Dawley
[19] = test system: Rat; assay: concentration in plasma after dosing; settings: dosed: Fluorotelomer alcohol 8+2, 12 mg/kg, oral, Male, Harlan Sprague Dawley
[20] = test system: Rat; assay: concentration in kidney after dosing; settings: 1200 h; dosed: Perfluorooctanoic acid; 12 mg/kg; oral; Male; Harlan Sprague Dawley
[21] = test system: Rat; assay: concentration in kidney after dosing; settings: 12 h; dosed: Perfluorooctanoic acid; 12 mg/kg; oral; Male; Harlan Sprague Dawley
[22] = test system: Rat; assay: concentration in kidney after dosing; settings: 6 h; dosed: Perfluorooctanoic acid; 12 mg/kg; oral; Male; Harlan Sprague Dawley; remark: listed apart in the source
[23] = test system: Rat; assay: concentration in liver after dosing; settings: 1 h; dosed: Fluorotelomer alcohol 8+2; 80 mg/kg; oral; Female; Harlan Sprague Dawley
[24] = test system: Rat; assay: concentration in liver after dosing; settings: 1 h; dosed: Potassium Perfluorobutane Sulfonate; 20 mg/kg; oral; Female; Harlan Sprague Dawley
[25] = test system: Rat; assay: concentration in liver after dosing; settings: 1 h; dosed: Potassium Perfluorobutane Sulfonate; 20 mg/kg; oral; Male; Harlan Sprague Dawley
[26] = test system: Rat; assay: concentration in plasma after dosing; settings: dosed: Potassium Perfluorobutane Sulfonate, 4 mg/kg, iv, Male, F344
[27] = test system: Rat; assay: concentration in plasma after dosing; settings: dosed: Potassium Perfluorobutane Sulfonate, 4 mg/kg, iv, Male, F344; remark: listed apart in the source
[28] = test system: Rat; assay: concentration in plasma after dosing; settings: dosed: Potassium Perfluorobutane Sulfonate, 4 mg/kg, oral, Male, Harlan Sprague Dawley
[29] = test system: Rat; assay: concentration in plasma after dosing; settings: dosed: Potassium Perfluorobutane Sulfonate, 4 mg/kg, oral, Male, Harlan Sprague Dawley; remark: listed apart in the source

Compound: COc1ccc(C(=O)c2ccccc2)c(O)c1 [2-Hydroxy-4-methoxybenzophenone]
- concentration in plasma ([1]; 2.5 min): 84.8 ng/mL
- concentration in plasma ([1]; 10 min): 27.8 ng/mL
- concentration in plasma ([1]; 0.25 h): 113 ng/mL
- concentration in plasma ([1]; 2 h): 24.1 ng/mL
- concentration in plasma ([1]; 3 h): 18.6 ng/mL
- concentration in plasma [2]: 22 ng/mL
- concentration in plasma [3]: 12.8 ng/mL
- concentration in plasma [4]: 35.5 ng/mL
- concentration in plasma [5]: 37.2 ng/mL
- concentration in plasma ([6]; 2.5 min): 6.4 ng/mL
- concentration in plasma ([6]; 4 h): 578 ng/mL
- concentration in plasma [7]: 81.6 ng/mL
- concentration in plasma ([8]; 10 min): 52.4 ng/mL
- concentration in plasma ([8]; 10 h): 27.5 ng/mL

Compound: O=N[O-] [Nitrite]
- concentration in plasma [9]: 1900 ng/mL
- concentration in plasma [10]: 1900 ng/mL

Compound: O=C(O)C(F)(F)C(F)(F)C(F)(F)C(F)(F)C(F)(F)C(F)(F)C(F)(F)F [Perfluorooctanoic acid]
- concentration in kidney [11]: 37600 ng/g
- concentration in brain [12]: 1330 ng/g
- concentration in liver [13]: 616 ng/g
- concentration in liver [14]: 2170 ng/g
- concentration in liver [15]: 46900 ng/g
- concentration in plasma ([16]; 0.25 h): 970 ng/mL
- concentration in plasma ([16]; 6 h): 1760 ng/mL
- concentration in plasma ([17]; 1 h): 342 ng/mL
- concentration in plasma ([17]; 6 h): 463 ng/mL
- concentration in kidney [18]: 14000 ng/g
- concentration in plasma ([19]; 0.25 h): 27.2 ng/mL
- concentration in plasma ([19]; 6 h): 635 ng/mL
- concentration in kidney [20]: 695 ng/g
- concentration in kidney [21]: 26900 ng/g
- concentration in kidney [22]: 43100 ng/g
- concentration in liver [23]: 601 ng/g

Compound: O=S(=O)([O-])C(F)(F)C(F)(F)C(F)(F)C(F)(F)F.[K+] [Potassium Perfluorobutane Sulfonate]
- concentration in liver [24]: 27800 ng/g
- concentration in liver [25]: 100000 ng/g
- concentration in plasma ([26]; 5 min): 32200 ng/mL
- concentration in plasma ([26]; 3 h): 12800 ng/mL
- concentration in plasma ([27]; 5 min): 27500 ng/mL
- concentration in plasma ([27]; 3 h): 429 ng/mL
- concentration in plasma ([28]; 0.75 h): 14200 ng/mL
- concentration in plasma ([28]; 12 h): 2550 ng/mL
- concentration in plasma ([29]; 1 h): 13800 ng/mL
- concentration in plasma ([29]; 24 h): 245 ng/mL
